Measured values from US20250381269A1, “BISPECIFIC ANTIBODY BINDING EGFR AND B7-H3” (FORTVITA BIOLOGICS (SINGAPORE) PTE. LTD., priority 2022, published 2025).

Tests used:
SK-MES-1 = test: Proliferation inhibition experiment, SK-MES-1 (NSCLC); type: cell-based; details: TKI highest concentration 1000 nM
Method: (§1) • (1) NSCLC: plated at 1500-2500 cells/100 μL in a 96-well low-adsorption plate (Corning, CLS7007-24EA) for 3D cell culture, in which the following cell lines and specific amounts were used: • NSCLC: 2000 cells/100 μL/well • NCI-H292: Cell Bank of the Chinese Academy of Sciences, SCSP-582 • NCI-H322: Cobioer, CBP60134 • NCI-H1650: ATCC, CRL-5883 • NCI-H1975: ATCC, CRL-5908 • SK-MES-1: CoBioer, CBP60152 • NCI-H1703: ATCC, HTB-43 • PC9+hB7H3: constructed as described above • CRC and HNSCC: plated at 1500-2000 cells/100 μL in a 96-well white-bottom plate (NUNC, 136101) for 2D cell culture, in which the following cell lines and specific amounts were used: • CRC: 1500 cells/100 μL/well • CCK-81: CoBioer, CBP60581 • HT-55: CoBioer, CBP60012 • H508: CoBioer, CBP60795 • LS180: CoBioer, CBP60034 • HNSCC: 1500 cells/100 μL/well • TE-1: CoBioer, CBP60655 • Colo680: CoBioer, CBP60452. (2) The antibody molecules prepared in advance by dilution were added to the corresponding cell well plate, mixed well, and cultured in an incubator at 37° C. with 5% CO2 for 5 days. • (3) After 5 days of continuous culture for proliferation inhibition assay, the Cell-Titer reagent (Promega, G7572) prepared in advance was added to cell wells, the plate was left to stand at room temperature for 15-25 min in the dark, and then CRC and HNSCC cells were directly detected by a multimode microplate reader (Molecular Devices, Spectra MAXi3). • (4) NSCLC: Cell-Titer and the cell mixture were transferred to a 96-well white-bottom plate (NUNC, 136101) and detected by a multimode microplate reader (Molecular Devices, Spectra MAXi3).

H1703 = test: Proliferation inhibition experiment, H1703 (NSCLC); type: cell-based; details: NCI-H1703; TKI highest concentration 1000 nM
Method: as §1

[1] = system: LS180 (EGFR^R521K, KRAS^G12D) CRC tumor cell line; test: Proliferation inhibition experiment, LS180, combination with MRTX1133; type: cell-based; details: 15.62 nM MRTX1133, read as without bsAb (starting value of the increase)
Method: • (1) NSCLC (H358) (Cobioer, CBP60136) and CRC (LS180) (Cobioer, CBP60034): plated at 1500-2500 cells/100 μL in a 96-well low-adsorption plate (Corning, CLS7007-24EA) for 3D cell culture. • (2) The antibody molecules and small molecule inhibitors prepared in advance by dilution were added to the corresponding cell well plate, mixed well, and cultured at 37° C. with 5% CO2 for 5 days. • (3) After 5 days of continuous culture for proliferation inhibition assay, the Cell-Titer reagent (Promega, G7572) prepared in advance was added to cell wells, and the plate was left to stand at room temperature for 15-25 min in the dark. • (4) Cell-Titer and the above cell mixture were transferred to a 96-well white-bottom plate (NUNC, 136101) and detected by a multimode microplate reader (Molecular Devices, Spectra MAXi3).

[2] = system: NCI-H358 tumor-bearing mice; test: Anti-tumor efficacy in NCI-H358 tumor-bearing mice, combination with AMG510; type: in vivo, NOG mice
Method: SPF female NOG mice (purchased from Beijing Vital River Laboratory Animal Technology Co., Ltd.) with certificate No. 1100112211001153625 were used in the experiment.
NCI-H358 cells were routinely subcultured for the subsequent in-vivo experiment. The cells were collected by centrifugation. Then the NCI-H358 cells were resuspended in an equal-proportion mixture of PBS (1×) and Matrigel Matrix (Corning) to prepare a cell suspension with a cell concentration of 25×10^6 cells/mL. On day 0, 0.2 mL of the cell suspension was taken and subcutaneously inoculated to the right abdominal area of NOG mice to establish NCI-H358 tumor-bearing mouse models.
Six days after the tumor cell inoculation, the tumor volume in each mouse was measured. The mice were grouped (with 7 mice in each group).
Administration was performed on days 6, 9, 12, and 15 after the inoculation of NCI-H358 cells. Mice were monitored for tumor volume and body weight twice a week. […] Mice were monitored for tumor volume twice a week, and were monitored for body weight every day during the administration, and twice a week after the end of administration. […] On day 33 after the inoculation, the relative tumor growth inhibition (TG1%) was calculated by the following formula: TG1%=100%×(control group tumor volume−treatment group tumor volume)/(control group tumor volume−control group tumor volume before administration).
Tumor volume measurement: The maximum length of major axis (L) and maximum length of minor axis (W) of tumors were measured with a vernier caliper, and tumor volume was calculated by the following formula: V=L×W^2/2. The mice were weighed using an electronic balance.

SMILES	sensitivity of the cell line to EGFR-TKI, in words (SK-MES-1)	sensitivity of the cell line to EGFR-TKI, in words (H1703)	also measured
C#Cc1cccc(Nc2ncnc3cc(OCCOC)c(OCCOC)cc23)c1 [erlotinib]	resistant and not sensitive	resistant and not sensitive	
C#Cc1c(F)ccc2cc(O)cc(-c3ncc4c(N5CC6CCC(C5)N6)nc(OC[C@@]56CCCN5C[C@H](F)C6)nc4c3F)c12 [MRTX1133]			anti-LS180 tumor efficacy [1]: 36.45%
C=CC(=O)Nc1cc(Nc2nccc(-c3cn(C)c4ccccc34)n2)c(OC)cc1N(C)CCN(C)C [osimertinib]	resistant and not sensitive	resistant and not sensitive	
C=CC(=O)N1CCN(c2nc(=O)n(-c3c(C)ccnc3C(C)C)c3nc(-c4c(O)cccc4F)c(F)cc23)[C@@H](C)C1 [AMG510, sotorasib]			Tumor volume (mm^3) ([2]; NCI-H358, NOG mice, antibodies 10 mg/kg i.p. Q3-4D x4 (h-IgG 20 mg/kg), AMG510 10 mg/kg intragastric QD x14, day 33): 180 mm^3; Tumor growth inhibition (%) ([2]; NCI-H358, NOG mice, antibodies 10 mg/kg i.p. Q3-4D x4, AMG510 10 mg/kg intragastric QD x14, day 33, vs h-IgG 20 mg/kg): 89%; body weight of mice ([2]; NCI-H358 tumor-bearing NOG mice, during administration and on day 33): caused a gradual decrease in the body weight of mice
